The values below come from ChEMBL document CHEMBL1127541, “3,4-Dihydro-3-amino-2H-1-benzopyran derivatives as 5-HT1A receptor ligands and potential anxiolytic agents. 1. Synthesis and structure--activity relationship studies” (J Med Chem, 1994).

For test [1], the target named is T1, Alpha-1A adrenergic receptor (Bos taurus, UniProt P18130).
T1 sequence (P18130 whole entry): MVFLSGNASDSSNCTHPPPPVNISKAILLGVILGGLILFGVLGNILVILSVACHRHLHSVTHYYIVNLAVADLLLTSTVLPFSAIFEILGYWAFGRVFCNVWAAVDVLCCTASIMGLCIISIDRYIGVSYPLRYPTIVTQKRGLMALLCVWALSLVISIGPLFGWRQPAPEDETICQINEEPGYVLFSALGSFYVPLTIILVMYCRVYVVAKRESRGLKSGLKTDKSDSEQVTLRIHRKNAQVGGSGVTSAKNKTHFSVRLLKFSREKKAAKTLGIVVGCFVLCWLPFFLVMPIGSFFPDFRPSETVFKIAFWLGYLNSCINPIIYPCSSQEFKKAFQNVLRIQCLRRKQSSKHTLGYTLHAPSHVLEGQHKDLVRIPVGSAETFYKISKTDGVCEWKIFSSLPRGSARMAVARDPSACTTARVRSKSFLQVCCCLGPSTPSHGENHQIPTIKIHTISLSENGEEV
The experiment in a line: Binding affinity against alpha-1 adrenergic receptor in calf frontal cortex. It is filed as tissue-based.

The target of another test is D(2) dopamine receptor (Bos taurus, UniProt P20288). The experiment in a line: Binding affinity against D2 receptor in calf caudate nucleus.
D(2) dopamine receptor, sequence (P20288 whole entry): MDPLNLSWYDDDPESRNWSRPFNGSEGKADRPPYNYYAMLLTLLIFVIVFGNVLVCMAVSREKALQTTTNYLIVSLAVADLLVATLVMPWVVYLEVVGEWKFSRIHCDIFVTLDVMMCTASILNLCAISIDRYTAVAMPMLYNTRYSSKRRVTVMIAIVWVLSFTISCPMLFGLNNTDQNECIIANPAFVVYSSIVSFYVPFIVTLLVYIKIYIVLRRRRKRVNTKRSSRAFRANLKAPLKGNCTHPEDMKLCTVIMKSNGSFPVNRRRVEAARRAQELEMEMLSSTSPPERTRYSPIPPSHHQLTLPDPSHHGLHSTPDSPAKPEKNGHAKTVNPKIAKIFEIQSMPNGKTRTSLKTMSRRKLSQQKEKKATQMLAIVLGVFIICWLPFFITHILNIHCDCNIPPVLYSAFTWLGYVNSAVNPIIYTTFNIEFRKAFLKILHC
The target of test [2] is 5-hydroxytryptamine receptor 1B (Rattus norvegicus, UniProt P28564). The experiment in a line: Binding affinity for 5-hydroxytryptamine 1B receptor in rat cortex, striatum and globus pallidus. It is filed as tissue-based.
5-hydroxytryptamine receptor 1B, sequence (P28564 whole entry): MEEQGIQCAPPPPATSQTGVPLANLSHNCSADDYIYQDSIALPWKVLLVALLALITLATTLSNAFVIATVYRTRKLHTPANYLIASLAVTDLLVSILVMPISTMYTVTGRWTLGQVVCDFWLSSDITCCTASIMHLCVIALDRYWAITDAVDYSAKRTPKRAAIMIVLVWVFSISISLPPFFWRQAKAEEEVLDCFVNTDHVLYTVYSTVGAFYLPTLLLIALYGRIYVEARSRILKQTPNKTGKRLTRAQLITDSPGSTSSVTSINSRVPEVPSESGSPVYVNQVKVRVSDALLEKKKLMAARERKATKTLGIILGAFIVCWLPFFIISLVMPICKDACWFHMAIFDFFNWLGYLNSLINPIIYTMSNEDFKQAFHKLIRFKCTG
Test [3] concerns the target T2, 5-hydroxytryptamine receptor 1A (Rattus norvegicus, UniProt P19327).
T2 sequence (P19327 whole entry): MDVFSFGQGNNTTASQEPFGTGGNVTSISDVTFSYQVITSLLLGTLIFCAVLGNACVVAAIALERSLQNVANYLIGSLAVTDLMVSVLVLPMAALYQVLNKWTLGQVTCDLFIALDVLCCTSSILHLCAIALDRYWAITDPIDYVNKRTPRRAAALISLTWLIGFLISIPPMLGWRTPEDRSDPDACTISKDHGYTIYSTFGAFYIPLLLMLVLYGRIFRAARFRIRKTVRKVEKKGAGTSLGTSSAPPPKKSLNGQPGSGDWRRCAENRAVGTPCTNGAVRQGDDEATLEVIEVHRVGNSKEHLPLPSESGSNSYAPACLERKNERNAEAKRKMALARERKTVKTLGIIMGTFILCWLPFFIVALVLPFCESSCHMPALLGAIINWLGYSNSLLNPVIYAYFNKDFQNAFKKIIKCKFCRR
The experiment in a line: Binding affinity against 5-hydroxytryptamine 1A (5-HT1A) receptor in rat hippocampus membranes. It counts as cell membranes, Membrane.

The target in test [4] is 5-hydroxytryptamine receptor 2A (Bos taurus, UniProt Q75Z89). The experiment in a line: Binding affinity towards 5-hydroxytryptamine 2 receptor in calf frontal cortex. It is filed as tissue-based.
5-hydroxytryptamine receptor 2A, sequence (Q75Z89 whole entry): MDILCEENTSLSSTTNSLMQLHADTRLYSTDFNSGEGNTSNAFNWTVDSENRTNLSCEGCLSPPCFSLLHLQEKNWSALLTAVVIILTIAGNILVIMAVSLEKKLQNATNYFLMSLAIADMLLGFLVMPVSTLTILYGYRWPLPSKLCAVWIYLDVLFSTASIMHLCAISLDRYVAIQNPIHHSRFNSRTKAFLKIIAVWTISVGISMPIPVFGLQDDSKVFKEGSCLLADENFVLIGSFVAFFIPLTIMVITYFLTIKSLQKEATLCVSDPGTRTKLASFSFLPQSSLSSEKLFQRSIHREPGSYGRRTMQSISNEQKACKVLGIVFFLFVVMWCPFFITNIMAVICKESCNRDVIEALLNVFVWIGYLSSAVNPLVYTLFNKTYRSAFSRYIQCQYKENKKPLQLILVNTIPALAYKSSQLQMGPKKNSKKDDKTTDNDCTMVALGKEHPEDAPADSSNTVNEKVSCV
Test [5] has as its target T3, Alpha-2A adrenergic receptor (Bos taurus, UniProt Q28838).
T3 sequence (Q28838 whole entry): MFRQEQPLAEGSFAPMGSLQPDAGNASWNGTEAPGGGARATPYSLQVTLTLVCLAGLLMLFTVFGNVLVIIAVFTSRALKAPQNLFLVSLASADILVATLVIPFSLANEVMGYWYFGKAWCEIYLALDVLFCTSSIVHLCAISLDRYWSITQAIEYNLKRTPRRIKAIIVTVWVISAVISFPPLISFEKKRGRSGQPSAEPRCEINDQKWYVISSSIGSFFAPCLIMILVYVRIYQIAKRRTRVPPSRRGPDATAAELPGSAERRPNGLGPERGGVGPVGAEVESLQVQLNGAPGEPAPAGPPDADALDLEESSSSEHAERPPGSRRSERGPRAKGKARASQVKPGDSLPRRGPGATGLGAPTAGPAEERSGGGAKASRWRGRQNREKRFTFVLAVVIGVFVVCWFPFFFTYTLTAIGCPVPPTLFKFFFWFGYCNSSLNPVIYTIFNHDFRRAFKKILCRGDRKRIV
The test can be described thus: Binding affinity against alpha-2 adrenergic receptor in calf frontal cortex. It counts as tissue-based.

Another test has as its target D(1A) dopamine receptor (Bos taurus, UniProt Q95136). The experiment in a line: Binding affinity towards dopamine receptor D1 in calf striatum. It counts as tissue-based.
For test [6], the system named is Mus musculus. The experiment in a line: The in vivo compartmental activity was evaluated as minimum significant active dose measured by punishment test. It counts as functional.
The test system of test [7] is Mus musculus. The experiment in a line: The in vivo compartmental activity was evaluated as minimum significant active dose measured by Dark/light box test. It is filed as functional.
A short description of test [8]: Inhibitory concentration of compound was tested as agonist activity against forskolin activated adenylate cyclase. It is filed as functional.
The test system of test [9] is Mus musculus. The experiment in a line: The in vivo compartmental activity was evaluated as minimum significant active dose measured by Drug discrimination test. It counts as functional.

A value given as a limit tells only on which side of the number the result lay.

D(1A) dopamine receptor, sequence (Q95136 whole entry): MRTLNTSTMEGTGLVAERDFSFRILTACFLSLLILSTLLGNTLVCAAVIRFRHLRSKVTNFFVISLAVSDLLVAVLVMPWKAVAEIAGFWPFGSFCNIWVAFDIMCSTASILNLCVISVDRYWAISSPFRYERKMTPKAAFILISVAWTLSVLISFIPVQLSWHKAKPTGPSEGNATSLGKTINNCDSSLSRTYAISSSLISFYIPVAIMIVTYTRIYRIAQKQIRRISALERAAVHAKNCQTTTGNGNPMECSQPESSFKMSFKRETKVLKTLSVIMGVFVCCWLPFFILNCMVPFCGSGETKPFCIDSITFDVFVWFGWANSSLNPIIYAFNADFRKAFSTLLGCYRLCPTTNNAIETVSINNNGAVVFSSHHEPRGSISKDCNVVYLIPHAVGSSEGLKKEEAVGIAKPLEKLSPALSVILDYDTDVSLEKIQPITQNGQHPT

As to `CCCN(CCCCCN1C(=O)CC2(CCCC2)CC1=O)C1COc2cccc(OC)c2C1` (configuration not stated), the 50% inhibitory concentration (IC50) in [1] came out at 5 µM; at D(2) dopamine receptor, 60 µM; in [2], 20 µM; in [3], 0.001 µM; in test [4], 3 µM; in test [5], 0.1 µM. Moreover, the 50% inhibitory concentration (IC50) on D(1A) dopamine receptor was determined as 60 µM.
In the case of `O=C1c2ccccc2S(=O)(=O)N1CCCCN1CCN(c2ncccn2)CC1` [IPSAPIRONE], the IC50 in test [1] is 1.2 µM; at D(2) dopamine receptor, over 1000 µM; in [2], 50 µM; in test [3], 0.035 µM; in test [4], 7.5 µM; in [5], 2.8 µM. The half-maximal inhibitory concentration (IC50) at D(1A) dopamine receptor was determined as 12 µM.
As for `CCCN(CCCCN1CCCCC1)C1COc2cccc(OC)c2C1` (configuration not stated), the IC50 in test [1] was 5 µM; on D(2) dopamine receptor, 0.02 µM; in [2], 50 µM; in test [3] it was 0.002 µM; in test [4] it was over 1000 µM; in test [5] it was 10 µM. Besides, the IC50 on D(1A) dopamine receptor came to 100 µM.
`CCCN(CCNS(=O)(=O)c1ccc(C)cc1)C1COc2cccc(OC)c2C1` (stereo in doubt; 15b): the IC50 in test [1] was 100 µM; at D(2) dopamine receptor, 0.1 µM; in [2], over 1000 µM; in [3] it was 0.002 µM; in test [4], 1 µM; in test [5], over 1000 µM. This compound showed an IC50 at D(1A) dopamine receptor of 50 µM.
Take `CCCN(CCNS(=O)(=O)c1ccc(C)cc1)C1COc2cccc(OC)c2C1` (stereo in doubt; (-)-15b): the IC50 in test [1] is 1000 µM; on D(2) dopamine receptor, 0.05 µM; in test [2] it was over 1000 µM; in test [3] it was 0.005 µM; in [4], 10 µM; in test [5], 10 µM. This compound also gave an IC50 on D(1A) dopamine receptor of 60 µM.
On to `CCCN(CCC)C1COc2ccc3ccccc3c2C1` (configuration not stated), for which the concentration for half-maximal inhibition (IC50) in test [1] turned out to be 2 µM; at D(2) dopamine receptor, 0.1 µM; in test [2], 30 µM; in test [3] it was 20 µM; in test [4] it was 10 µM; in [5] it was 10 µM. The same compound returned a 50% inhibitory concentration (IC50) at D(1A) dopamine receptor of 40 µM.
As for `COc1cccc2c1CC(NCCCCN1C(=O)c3ccccc3C1=O)CO2` (configuration not stated), the half-inhibitory concentration (IC50) came to 1000 µM in [1]; 5 µM at D(2) dopamine receptor; 7 µM in test [2]; 0.09 µM in test [3]; 0.6 µM in test [4]; 4 µM in [5]. Moreover, the half-maximal inhibitory concentration (IC50) on D(1A) dopamine receptor amounted to 30 µM.
As to `CCCN(CCCCn1c(=O)oc2cccnc21)C1COc2cccc(OC)c2C1` (configuration not stated), the concentration for half-maximal inhibition (IC50) in test [1] amounted to 3 µM; on D(2) dopamine receptor it was 0.1 µM; in test [2], 1 µM; in [3], 0.005 µM; in test [4] it was 6 µM; in test [5] it was 5 µM. This compound also registered a half-inhibitory concentration (IC50) on D(1A) dopamine receptor of 30 µM.
Consider `CCCN(CCC)C1COc2cccc(OC)c2C1` (stereo in doubt; (-)-4), for which the IC50 in [1] is 3.5 µM; on D(2) dopamine receptor it was 0.21 µM; in [2] it was 1 µM; in test [3], 0.001 µM; in [4], 4 µM; in [5] it was 0.78 µM. On D(1A) dopamine receptor, the IC50 was over 1000 µM.
As for `CCCN(CCN1C(=O)CC2(CCCC2)CC1=O)C1COc2cccc(OC)c2C1` (configuration not stated), the IC50 is over 1000 µM in [1]; 3 µM on D(2) dopamine receptor; over 1000 µM in test [2]; 0.03 µM in test [3]; over 1000 µM in test [4]; over 1000 µM in test [5]. On D(1A) dopamine receptor, the IC50 is over 1000 µM.
For the compound `CCCN(CCCCN1C(=O)CC2(CCCC2)CC1=O)C1COc2cccc(O)c2C1` (configuration not stated), the IC50 in test [1] amounted to 10 µM; at D(2) dopamine receptor, 0.008 µM; in test [2] it was 30 µM; in test [3], 0.001 µM; in test [4] it was 4 µM; in [5], 20 µM. Moreover, on D(1A) dopamine receptor, the IC50 amounted to 100 µM.
On to `CCCN(CCCCN1C(=O)CC2(CCCC2)CC1=O)C1COc2cccc(OC)c2C1.O=C(O)C(=O)O` (stereo in doubt; 9g), for which the 50% inhibitory concentration (IC50) in test [1] worked out at 6 µM; at D(2) dopamine receptor it was 0.01 µM; in [2] it was 5 µM; in [3] it was 0.0002 µM; in test [4] it was 1 µM; in [8] it was 0.0263 µM. Moreover, the concentration for half-maximal inhibition (IC50) in [5] came out at 10 µM; at D(1A) dopamine receptor, 40 µM. Moreover, the Punishment test msad in the test with Mus musculus [6] came to 0.06 mg/kg. Also, in the test with Mus musculus [7], the DLBT worked out at 2 mg/kg. The compound further had a DDT msad with Mus musculus [9] of 0.3 mg/kg.
Regarding `COc1cccc2c1CC(N1CCCC1)CO2` (configuration not stated), the half-maximal inhibitory concentration (IC50) in [1] was determined as 40 µM; at D(2) dopamine receptor, 2.5 µM; in [2], 100 µM; in [3] it was 0.007 µM; in [4] it was 60 µM; in test [5] it was 3 µM. Moreover, the half-maximal inhibitory concentration (IC50) on D(1A) dopamine receptor amounted to 1000 µM.
For the compound `CCCN(CCCCNS(=O)(=O)c1ccc(C)cc1)C1COc2cccc(OC)c2C1` (stereo in doubt; 15d), the IC50 stood at 3 µM in test [1]; 0.2 µM on D(2) dopamine receptor; 8 µM in [2]; 0.002 µM in test [3]; 10 µM in [4]; 10 µM in test [5]. This compound registered a concentration for half-maximal inhibition (IC50) on D(1A) dopamine receptor of 30 µM.
`CCCN(CCCCNS(=O)(=O)c1ccc(C)cc1)C1COc2cccc(OC)c2C1` (single isomer, unassigned; (+)): the concentration for half-maximal inhibition (IC50) in [1] came out at 3 µM; at D(2) dopamine receptor, 0.1 µM; in [2], 9 µM; in test [3] it was 0.0007 µM; in test [4], 8 µM; in test [5] it was 2 µM. The compound further came in with an IC50 on D(1A) dopamine receptor of 20 µM.
For the compound `CCCN(CCCCN1C(=O)CC2(CCCC2)CC1=O)C1COc2ccccc2C1` (configuration not stated), the IC50 in [1] came out at 7 µM; at D(2) dopamine receptor it was 0.004 µM; in [2] it was 30 µM; in test [3], 0.002 µM; in test [4], 2 µM; in test [5], 10 µM. The same compound yielded an IC50 on D(1A) dopamine receptor of 40 µM.
On to `CCCN(CCCNS(=O)(=O)c1ccc(C)cc1)C1COc2cccc(OC)c2C1` (configuration not stated), for which the half-maximal inhibitory concentration (IC50) in [1] is 3 µM; at D(2) dopamine receptor it was 0.03 µM; in test [2], 2 µM; in test [3], 0.003 µM; in test [4], 6 µM; in test [5], 0.5 µM. Besides, the IC50 at D(1A) dopamine receptor was found to be 20 µM.
`CCCN(CCCCN1CCOCC1)C1COc2cccc(OC)c2C1` (configuration not stated): the IC50 was 10 µM in [1]; 0.03 µM on D(2) dopamine receptor; over 1000 µM in test [2]; 0.008 µM in test [3]; 10 µM in [4]; 4 µM in [5]. For the same compound, the IC50 on D(1A) dopamine receptor was found to be 100 µM.
On to `CCCN(CCCN1C(=O)CC2(CCCC2)CC1=O)C1COc2cccc(OC)c2C1` (configuration not stated), for which the IC50 is 8 µM in test [1]; 0.6 µM on D(2) dopamine receptor; 20 µM in [2]; 0.001 µM in test [3]; 0.8 µM in test [4]; 6 µM in test [5]. At D(1A) dopamine receptor, this compound showed an IC50 of 10 µM.
